Data set [1] can be described thus: Variable-temperature XRPD. It counts as physicochemical. To be noted: heated up to 100° C. On the procedure:
In this application, X-ray powder diffraction (XRPD) data were collected using a BrukerD8 Advance diffractometer; parameters are as follows: Cu radiation; wavelength: 1.54 Å; Current voltage: 40 KV, 40 mA; Scan range: 3˜40° 2θ.

Data set [2] in a line: physchem. To be noted: thermodynamic from solid.
The conditions of data set [3]: pH 1.2.
The nature of data set [4]: Accelerated closed-vial stability study. In kind it is physicochemical. The following applies: 40° C., 75% RH.
Data set [5] can be described thus: physchem. The following applies: thermodynamic from solid, Instantaneous Solubility.
The conditions of data set [6]: 40° C., 75% RH; for Assay (%) / Color / XRPD: open vial.
Description: The samples were placed under accelerated open-vial conditions (40° C., 75% RH, and open vial) to assess the stability of both samples.
The conditions of data set [7]: cited from earlier work.
Setting [8] is: pH 1.2, simulated gastric fluid.
[9] abbreviates: sealed 5 mL vial in self-sealing bag.

Entries after “also recorded” stand apart in the source; their conditions may differ. Counter-ions that a name gives are not always drawn. Like-named read-outs stand apart in the source and are kept apart here.

`C=CC(=O)Nc1cc(Nc2nccc(-n3cc(CN(C)C)c(-c4ccccc4)n3)n2)c(OC)cc1N1CCOCC1` [Form A, lazertinib mesylate]: the “crystal form on heating (variable-temperature XRPD)” value in data set [1] is recorded as “remains unchanged”. Further, in the data set “physchem [2]” (setting [8]), the solubility at 4 hrs is more than 60 mg/mL, the solubility at 12 hrs was more than 60 mg/mL and the solubility (thermodynamic) is more than 60 mg/mL. In the data set “physchem [2]” (pH 4, aqueous buffer), the solubility at 4 hrs amounted to 67.9 mg/mL, the solubility at 12 hrs came out at 67 mg/mL and the thermodynamic solubility was more than 60 mg/mL. In “physchem [2]” (water), this compound yielded a solubility at 4 hrs of 70.7 mg/mL, a solubility at 12 hrs of 69.4 mg/mL and a thermodynamic solubility of more than 60 mg/mL. Also, in data set [3], the “Instantaneous Solubility” value is listed as more than 50 mg/mL. Besides, the “remains stable for at least (time)” value in data set [4] (5 mL vial packed in a self-sealing bag (sealed)) is “at least 1 month”. Also, in data set [4] (setting [9]), the “change in assay value” is “minimal change; also recorded: no significant changes”; the “color before and after storage” value is on record as “white; also recorded: no significant changes”; the “crystal form before and after storage” value is given as “remains unchanged; also recorded: no significant changes”. The same compound had a solubility in “physchem [5]” (setting [8]) of more than 80 mg/mL. Further, the solubility in the data set “physchem [5]” (pH 4, aqueous buffer) is more than 50 mg/mL. The solubility in the data set “physchem [5]” (water) is more than 50 mg/mL. In addition, in data set [6] (open), the “remains stable for at least (time)” value is “at least 21 days”. Further, in data set [6] (0 day), the “Assay (%)” value stood at 98.79%, the Color result was “white” and the XRPD entry is given as “Form A”. Besides, in data set [6] (21 days), the “Assay (%)” value worked out at 98.44%, the Color result was “white” and the XRPD result is recorded as “Form A”.
Regarding `C=CC(=O)Nc1cc(Nc2nccc(-n3cc(CN(C)C)c(-c4ccccc4)n3)n2)c(OC)cc1N1CCOCC1` [Form I, lazertinib mono-mesylate, reference compound], the solubility in data set [7] (pH 1.2) is recorded as 14.9 mg/mL. Further, in data set [7] (pH 4), the solubility is given as 20.9 mg/mL. Moreover, in data set [6] (0 day), the “Assay (%)” value is reported as 98.73%, the Color result is listed as “yellow” and the XRPD result is on record as “Form I”. In data set [6] (21 days), the “Assay (%)” value is recorded as 70.35%, the Color entry is on record as “pink” and the XRPD entry was “Form I”. In data set [6] (open, 21 days), the “change in assay value (in words)” value is “significant decrease” and the “change in color (in words)” value is reported as “from yellow to pink”.

Usually solubility stands for the concentration that dissolves in the medium under given conditions. For orientation: thermodynamic solubility means solubility found after equilibrating the solid with the medium.

These data come from patent US20240270733A1, “HYDRATE FORM OF LAZERTINIB MESYLATE, PREPARATION METHOD THEREOF AND USE THEREOF” (HANGZHOU SOLIPHARMA CO., LTD., priority 2021, published 2024).
